Experiments:
Liver cytosol [1] = test: Drug level in human liver cytosol treated with 2 uM [14C](R)-1-(4-(4-fluoro-2-(hydroxymethyl)-1H-indol-5-yloxy)-5-methylpyrrolo[1,2-f][1,2,4]triazin-6-yloxy)propan-2-ol for 60 mins by LC/MS analysis in presence of PAPS; type: ADME, tissue-based
Liver microsome [2] = test: Drug level in human liver microsomes treated with 2 uM [14C](R)-1-(4-(4-fluoro-2-methyl-1H-indol-5-yloxy)-5-methylpyrrolo[1,2-f][1,2,4]triazin-6-yloxy)propane-2-sulfonic acid for 60 mins by LC/MS analysis in presence of NADPH; type: ADME
Liver cytosol [3] = test: Drug level in human liver cytosol treated with 2 uM [14C](R)-4-fluoro-5-(6-(2-hydroxypropoxy)-5-methylpyrrolo[1,2-f][1,2,4]triazin-4-yloxy)-1H-indole-2-carboxylic acid for 60 mins by LC/MS analysis in presence of PAPS; type: ADME, tissue-based
Liver cytosol [4] = test: Drug metabolism in human liver cytosol assessed as (R)-4-fluoro-5-(5-methyl-6-(2-sulfopropoxy)pyrrolo[1,2-f][1,2,4]triazin-4-yloxy)-1H-indole-2-carboxylic acid formation at 2 uM for 60 mins by LC/MS analysis in presence of PAPS; type: ADME
Liver cytosol [5] = test: Drug metabolism in human liver cytosol assessed as sulfate conjugate formation at 2 uM for 60 mins in absence of PAPS by LC/MS analysis; type: ADME, tissue-based; settings: 1 h
Cytochrome P450 2D6 = Cytochrome P450 2D6 (Homo sapiens, UniProt P10635); test: Activity of human CYP2D6 assessed as compound formation treated with 2 and 20 uM brivanib for 20 mins by LC/MS analysis in presence of NADPH; type: ADME
Sequence of Cytochrome P450 2D6 (P10635 whole entry): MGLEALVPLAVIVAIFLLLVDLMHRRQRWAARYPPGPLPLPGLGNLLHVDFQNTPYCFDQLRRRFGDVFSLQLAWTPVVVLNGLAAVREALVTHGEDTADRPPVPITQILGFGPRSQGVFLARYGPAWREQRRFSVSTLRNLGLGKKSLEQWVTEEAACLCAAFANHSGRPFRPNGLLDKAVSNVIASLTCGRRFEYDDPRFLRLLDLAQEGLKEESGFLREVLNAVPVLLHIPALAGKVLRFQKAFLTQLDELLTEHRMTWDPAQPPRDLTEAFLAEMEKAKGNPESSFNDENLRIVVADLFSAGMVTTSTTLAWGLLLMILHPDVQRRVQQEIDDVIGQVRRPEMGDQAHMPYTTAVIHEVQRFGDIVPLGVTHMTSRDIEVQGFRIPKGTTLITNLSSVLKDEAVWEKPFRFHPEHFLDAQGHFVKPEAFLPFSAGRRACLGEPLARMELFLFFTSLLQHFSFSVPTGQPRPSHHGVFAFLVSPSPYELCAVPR

Cytochrome P450 3A5 = Cytochrome P450 3A5 (Homo sapiens, UniProt P20815); test: Activity of human CYP3A5 assessed as compound formation treated with 2 and 20 uM brivanib for 20 mins by LC/MS analysis in presence of NADPH; type: ADME
Sequence of Cytochrome P450 3A5 (P20815 whole entry): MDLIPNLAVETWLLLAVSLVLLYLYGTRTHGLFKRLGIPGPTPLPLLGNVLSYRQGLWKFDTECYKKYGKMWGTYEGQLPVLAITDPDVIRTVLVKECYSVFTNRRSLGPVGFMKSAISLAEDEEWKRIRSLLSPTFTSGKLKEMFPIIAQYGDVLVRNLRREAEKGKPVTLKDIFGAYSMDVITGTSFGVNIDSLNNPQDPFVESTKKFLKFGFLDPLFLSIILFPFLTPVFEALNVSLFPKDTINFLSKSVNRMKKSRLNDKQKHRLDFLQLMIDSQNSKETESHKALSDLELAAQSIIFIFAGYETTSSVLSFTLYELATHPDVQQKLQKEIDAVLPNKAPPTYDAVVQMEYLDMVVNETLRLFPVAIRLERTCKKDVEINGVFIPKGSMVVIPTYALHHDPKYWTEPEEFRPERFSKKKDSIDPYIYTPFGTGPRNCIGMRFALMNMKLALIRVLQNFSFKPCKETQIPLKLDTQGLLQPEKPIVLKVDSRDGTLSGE

Cytochrome P450 2C19 = Cytochrome P450 2C19 (Homo sapiens, UniProt P33261); test: Activity of human CYP2C19 assessed as compound formation treated with 2 and 20 uM brivanib for 20 mins by LC/MS analysis in presence of NADPH; type: ADME
Sequence of Cytochrome P450 2C19 (P33261 whole entry): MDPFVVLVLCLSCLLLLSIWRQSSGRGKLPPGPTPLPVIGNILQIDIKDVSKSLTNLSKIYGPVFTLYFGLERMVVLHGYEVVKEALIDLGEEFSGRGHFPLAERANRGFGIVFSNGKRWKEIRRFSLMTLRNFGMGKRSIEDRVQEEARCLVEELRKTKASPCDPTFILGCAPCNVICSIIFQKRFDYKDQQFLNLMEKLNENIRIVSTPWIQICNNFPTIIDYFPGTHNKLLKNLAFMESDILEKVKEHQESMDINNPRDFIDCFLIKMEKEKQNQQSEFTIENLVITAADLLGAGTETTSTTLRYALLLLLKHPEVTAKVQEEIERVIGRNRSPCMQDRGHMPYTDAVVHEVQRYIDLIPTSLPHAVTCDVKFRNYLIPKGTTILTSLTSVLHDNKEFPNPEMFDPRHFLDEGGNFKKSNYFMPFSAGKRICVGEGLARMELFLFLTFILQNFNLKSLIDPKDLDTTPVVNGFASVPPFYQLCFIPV

Cytochrome P450 2C8 = biological target: T1, Cytochrome P450 2C8 (Homo sapiens, UniProt P10632); test: Activity of human CYP2C8 assessed as compound formation treated with 2 and 20 uM brivanib for 20 mins by LC/MS analysis in presence of NADPH; type: ADME
T1 sequence (P10632 whole entry): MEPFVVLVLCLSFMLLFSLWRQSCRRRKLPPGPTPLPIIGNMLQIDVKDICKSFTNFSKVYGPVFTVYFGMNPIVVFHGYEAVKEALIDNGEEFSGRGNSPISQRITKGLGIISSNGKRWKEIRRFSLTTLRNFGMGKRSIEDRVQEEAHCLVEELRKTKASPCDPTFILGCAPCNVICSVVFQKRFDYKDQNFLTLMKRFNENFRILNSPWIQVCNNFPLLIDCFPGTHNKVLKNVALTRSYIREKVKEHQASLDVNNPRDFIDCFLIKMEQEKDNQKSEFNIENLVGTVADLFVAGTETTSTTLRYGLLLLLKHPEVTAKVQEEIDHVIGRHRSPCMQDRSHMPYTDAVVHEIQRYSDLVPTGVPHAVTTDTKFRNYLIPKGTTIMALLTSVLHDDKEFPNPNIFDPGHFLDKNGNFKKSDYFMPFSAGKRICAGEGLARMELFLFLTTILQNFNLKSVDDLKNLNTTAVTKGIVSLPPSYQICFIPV

Cytochrome P450 2A6 = biological target: T2, Cytochrome P450 2A6 (Homo sapiens, UniProt P11509); test: Activity of human CYP2A6 assessed as compound formation treated with 2 and 20 uM brivanib for 20 mins by LC/MS analysis in presence of NADPH; type: ADME
T2 sequence (P11509 whole entry): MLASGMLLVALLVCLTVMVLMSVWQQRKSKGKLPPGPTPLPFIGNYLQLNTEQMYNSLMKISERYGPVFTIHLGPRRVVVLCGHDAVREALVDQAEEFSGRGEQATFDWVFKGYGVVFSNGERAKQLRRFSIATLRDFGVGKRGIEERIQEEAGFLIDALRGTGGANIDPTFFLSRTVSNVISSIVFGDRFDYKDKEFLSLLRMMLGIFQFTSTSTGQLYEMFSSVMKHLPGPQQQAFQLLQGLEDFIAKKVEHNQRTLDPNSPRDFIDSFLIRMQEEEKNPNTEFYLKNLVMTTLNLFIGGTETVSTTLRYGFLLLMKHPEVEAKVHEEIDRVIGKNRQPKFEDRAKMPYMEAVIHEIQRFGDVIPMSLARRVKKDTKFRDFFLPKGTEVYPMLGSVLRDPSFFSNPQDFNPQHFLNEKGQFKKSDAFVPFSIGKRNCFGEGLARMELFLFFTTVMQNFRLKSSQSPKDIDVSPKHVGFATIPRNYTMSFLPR

Cytochrome P450 2B6 = biological target: T3, Cytochrome P450 2B6 (Homo sapiens, UniProt P20813); test: Activity of human CYP2B6 assessed as compound formation treated with 2 and 20 uM brivanib for 20 mins by LC/MS analysis in presence of NADPH; type: ADME
T3 sequence (P20813 whole entry): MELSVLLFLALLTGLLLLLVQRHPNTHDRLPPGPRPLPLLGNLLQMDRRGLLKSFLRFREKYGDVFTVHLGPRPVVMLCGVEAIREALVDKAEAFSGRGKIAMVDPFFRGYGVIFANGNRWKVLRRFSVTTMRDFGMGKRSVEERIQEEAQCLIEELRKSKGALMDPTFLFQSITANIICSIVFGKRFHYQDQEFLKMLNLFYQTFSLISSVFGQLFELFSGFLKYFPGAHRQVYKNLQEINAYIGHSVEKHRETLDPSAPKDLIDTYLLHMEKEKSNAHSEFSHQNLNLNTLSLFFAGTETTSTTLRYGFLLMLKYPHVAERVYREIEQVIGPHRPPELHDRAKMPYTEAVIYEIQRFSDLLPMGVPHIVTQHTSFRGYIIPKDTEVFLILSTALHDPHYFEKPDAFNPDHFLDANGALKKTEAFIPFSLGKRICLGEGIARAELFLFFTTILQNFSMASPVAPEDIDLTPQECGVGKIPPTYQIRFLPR

Cytochrome P450 2C9 = Cytochrome P450 2C9 (Homo sapiens, UniProt P11712); test: Activity of human CYP2C9 assessed as compound formation treated with 2 and 20 uM brivanib for 20 mins by LC/MS analysis in presence of NADPH; type: ADME
Sequence of Cytochrome P450 2C9 (P11712 whole entry): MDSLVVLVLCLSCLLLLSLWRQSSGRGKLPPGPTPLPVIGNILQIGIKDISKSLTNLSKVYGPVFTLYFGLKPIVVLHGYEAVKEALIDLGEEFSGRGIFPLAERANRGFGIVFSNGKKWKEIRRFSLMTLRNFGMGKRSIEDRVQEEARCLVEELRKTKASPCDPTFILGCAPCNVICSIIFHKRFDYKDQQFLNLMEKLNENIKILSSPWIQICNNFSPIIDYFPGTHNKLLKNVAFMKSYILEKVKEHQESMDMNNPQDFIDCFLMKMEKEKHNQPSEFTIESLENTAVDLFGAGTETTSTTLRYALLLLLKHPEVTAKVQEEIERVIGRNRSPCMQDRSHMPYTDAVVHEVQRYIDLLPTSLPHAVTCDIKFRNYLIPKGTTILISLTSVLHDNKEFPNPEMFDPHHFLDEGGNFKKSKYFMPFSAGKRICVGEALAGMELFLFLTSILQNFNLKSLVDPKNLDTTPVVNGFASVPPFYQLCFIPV

Liver microsome [6] = test: Drug level in human liver microsomes treated with 2 and 20 uM brivanib for 30 mins by LC/MS analysis in presence of 2 uM CYP2A6 inhibitor tranylcypromine; type: ADME; settings: 0.5 h
Liver microsome [7] = test: Drug level in human liver microsomes treated with 2 and 20 uM brivanib for 30 mins by LC/MS analysis in presence of 50 uM CYP2B6 inhibitor orphenadrine; type: ADME; settings: 0.5 h
Liver microsome [8] = test: Drug level in human liver microsomes treated with 2 and 20 uM brivanib for 30 mins by LC/MS analysis in presence of 3 uM CYP2C8 inhibitor montekulast; type: ADME; settings: 0.5 h
Cytochrome P450 1A1 = Cytochrome P450 1A1 (Homo sapiens, UniProt P04798); test: Activity of human CYP1A1 assessed as compound formation treated with 2 and 20 uM brivanib for 20 mins by LC/MS analysis in presence of NADPH; type: ADME
Sequence of Cytochrome P450 1A1 (P04798 whole entry): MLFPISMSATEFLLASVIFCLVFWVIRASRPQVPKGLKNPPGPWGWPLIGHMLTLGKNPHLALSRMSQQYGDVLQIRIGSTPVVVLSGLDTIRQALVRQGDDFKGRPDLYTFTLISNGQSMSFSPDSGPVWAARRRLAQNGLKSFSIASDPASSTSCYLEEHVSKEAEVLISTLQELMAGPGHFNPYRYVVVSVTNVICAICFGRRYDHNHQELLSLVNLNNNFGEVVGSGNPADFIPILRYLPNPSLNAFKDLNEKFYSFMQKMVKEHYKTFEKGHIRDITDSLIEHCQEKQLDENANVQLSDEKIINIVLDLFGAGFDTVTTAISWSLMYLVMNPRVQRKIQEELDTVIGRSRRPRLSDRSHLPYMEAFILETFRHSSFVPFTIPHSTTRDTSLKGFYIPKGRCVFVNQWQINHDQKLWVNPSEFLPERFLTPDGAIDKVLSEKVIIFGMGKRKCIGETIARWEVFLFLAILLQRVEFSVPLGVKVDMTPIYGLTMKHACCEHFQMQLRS

Cytochrome P450 1A2 = biological target: T4, Cytochrome P450 1A2 (Homo sapiens, UniProt P05177); test: Activity of human CYP1A2 assessed as compound formation treated with 2 and 20 uM brivanib for 20 mins by LC/MS analysis in presence of NADPH; type: ADME
T4 sequence (P05177 whole entry): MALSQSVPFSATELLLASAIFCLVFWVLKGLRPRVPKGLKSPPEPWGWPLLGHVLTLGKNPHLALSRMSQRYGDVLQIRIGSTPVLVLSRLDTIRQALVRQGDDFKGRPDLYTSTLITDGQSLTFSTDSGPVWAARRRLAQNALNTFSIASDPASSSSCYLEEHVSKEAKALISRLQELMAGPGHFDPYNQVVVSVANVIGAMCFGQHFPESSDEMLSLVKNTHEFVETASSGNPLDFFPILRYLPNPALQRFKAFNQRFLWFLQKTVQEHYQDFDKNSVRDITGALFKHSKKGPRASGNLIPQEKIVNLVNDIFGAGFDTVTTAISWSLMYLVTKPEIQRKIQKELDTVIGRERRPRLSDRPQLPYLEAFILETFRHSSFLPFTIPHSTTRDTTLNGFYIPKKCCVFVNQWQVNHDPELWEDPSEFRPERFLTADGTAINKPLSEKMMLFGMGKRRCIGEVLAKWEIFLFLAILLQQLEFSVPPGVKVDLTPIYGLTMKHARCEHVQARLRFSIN

Cytochrome P450 1B1 = Cytochrome P450 1B1 (Homo sapiens, UniProt Q16678); test: Activity of human CYP1B1 assessed as compound formation treated with 2 and 20 uM brivanib for 20 mins by LC/MS analysis in presence of NADPH; type: ADME
Sequence of Cytochrome P450 1B1 (Q16678 whole entry): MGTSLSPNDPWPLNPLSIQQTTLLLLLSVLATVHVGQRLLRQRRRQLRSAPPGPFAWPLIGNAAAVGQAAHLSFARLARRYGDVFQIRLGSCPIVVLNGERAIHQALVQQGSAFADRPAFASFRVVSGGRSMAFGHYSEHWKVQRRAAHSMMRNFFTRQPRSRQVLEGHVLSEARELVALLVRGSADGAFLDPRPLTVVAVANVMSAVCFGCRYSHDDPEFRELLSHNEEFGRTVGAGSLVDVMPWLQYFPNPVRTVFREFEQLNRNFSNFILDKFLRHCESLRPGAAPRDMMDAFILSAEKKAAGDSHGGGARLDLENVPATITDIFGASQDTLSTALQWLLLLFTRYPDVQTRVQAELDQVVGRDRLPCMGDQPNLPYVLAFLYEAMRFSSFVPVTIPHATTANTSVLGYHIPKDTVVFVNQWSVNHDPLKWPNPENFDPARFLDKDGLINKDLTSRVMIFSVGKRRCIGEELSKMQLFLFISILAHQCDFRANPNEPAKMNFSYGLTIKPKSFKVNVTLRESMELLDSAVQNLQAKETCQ

Cytochrome P450 3A4 = Cytochrome P450 3A4 (Homo sapiens, UniProt P08684); test: Activity of human CYP3A4 assessed as compound formation treated with 2 and 20 uM brivanib for 20 mins by LC/MS analysis in presence of NADPH; type: ADME
Sequence of Cytochrome P450 3A4 (P08684 whole entry): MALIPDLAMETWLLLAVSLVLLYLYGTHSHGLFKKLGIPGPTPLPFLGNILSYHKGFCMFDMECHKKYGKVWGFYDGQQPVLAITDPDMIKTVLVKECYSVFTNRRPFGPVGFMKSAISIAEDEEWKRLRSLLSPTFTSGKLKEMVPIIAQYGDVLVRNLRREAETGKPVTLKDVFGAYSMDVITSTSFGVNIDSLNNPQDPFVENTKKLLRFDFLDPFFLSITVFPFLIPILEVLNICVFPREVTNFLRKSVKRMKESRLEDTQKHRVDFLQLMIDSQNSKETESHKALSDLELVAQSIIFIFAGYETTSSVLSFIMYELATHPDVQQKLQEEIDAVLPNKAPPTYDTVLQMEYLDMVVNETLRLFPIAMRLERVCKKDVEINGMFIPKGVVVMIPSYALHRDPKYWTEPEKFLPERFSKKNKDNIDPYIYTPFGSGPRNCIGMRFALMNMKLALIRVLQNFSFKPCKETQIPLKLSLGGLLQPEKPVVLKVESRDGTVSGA

Liver microsome [9] = test: Drug level in human liver microsomes treated with 2 and 20 uM brivanib for 30 mins by LC/MS analysis in presence of 10 uM CYP2C9 inhibitor sulfaphenazole; type: ADME; settings: 0.5 h
Liver microsome [10] = test: Drug level in human liver microsomes treated with 2 and 20 uM brivanib for 30 mins by LC/MS analysis in presence of 1 uM CYP2D6 inhibitor quinidine; type: ADME; settings: 0.5 h
Liver microsome [11] = test: Drug level in human liver microsomes treated with 2 and 20 uM brivanib for 30 mins by LC/MS analysis in presence of 50 uM CYP2E1 inhibitor diethyldithiocarbamate; type: ADME; settings: 0.5 h
Liver microsome [12] = test: Drug level in human liver microsomes assessed as compound formation treated with 2 uM [14C]brivanib alaninate for 60 mins by LC/MS analysis in presence of NADPH; type: ADME; settings: 1 h
Liver cytosol [13] = test: Drug level in human liver cytosol treated with 2 uM [14C](R)-1-(4-(4-fluoro-2-(hydroxymethyl)-1H-indol-5-yloxy)-5-methylpyrrolo[1,2-f][1,2,4]triazin-6-yloxy)propan-2-ol for 60 mins by LC/MS analysis in presence of NADPH; type: ADME, tissue-based
Liver cytosol [14] = test: Drug level in human liver cytosol treated with 2 uM [14C](R)-1-(4-(4-fluoro-2-(hydroxymethyl)-1H-indol-5-yloxy)-5-methylpyrrolo[1,2-f][1,2,4]triazin-6-yloxy)propan-2-ol for 60 mins by LC/MS analysis; type: ADME, tissue-based
Liver microsome [15] = test: Drug metabolism in human liver microsomes assessed as (R)-1-(4-(4-fluoro-2-(hydroxymethyl)-1H-indol-5-yloxy)-5-methylpyrrolo[1,2-f][1,2,4]triazin-6-yloxy)propane-2-sulfonic acid at 2 uM for 60 mins by LC/MS analysis in presence of NADPH; type: ADME
Liver microsome [16] = test: Drug metabolism in human liver microsomes assessed as (R)-4-fluoro-5-(5-methyl-6-(2-sulfopropoxy)pyrrolo[1,2-f][1,2,4]triazin-4-yloxy)-1H-indole-2-carboxylic acid at 2 uM for 60 mins by LC/MS analysis in presence of NADPH; type: ADME
Liver microsome [17] = test: Drug metabolism in human liver microsomes assessed as compound oxidation at 2 uM for 60 mins by LC/MS analysis in absence of NADPH; type: ADME; settings: 1 h
[18] = substrate: Cc1cc2c(F)c(Oc3ncnn4cc(OC[C@@H](C)O)c(C)c34)ccc2[nH]1; test: Activity of human CYP1A2 assessed as enzyme-mediated (R)-1-(4-(4-fluoro-2-(hydroxymethyl)-1H-indol-5-yloxy)-5-methylpyrrolo[1,2-f][1,2,4]triazin-6-yloxy)propan-2-ol formation in presence of NADPH; type: ADME

Cc1c(OC[C@@H](C)OS(=O)(=O)O)cn2ncnc(Oc3ccc4[nH]c(CO)cc4c3F)c12
metabolite_detected: Drug metabolism (Liver cytosol [1]) | Drug metabolism (Liver microsome [2])

Cc1c(OC[C@@H](C)OS(=O)(=O)O)cn2ncnc(Oc3ccc4[nH]c(C(=O)O)cc4c3F)c12
metabolite_detected: Drug metabolism (Liver cytosol [1]) | Drug metabolism (Liver cytosol [3]) | Drug metabolism (Liver microsome [2])

Cc1c(OC[C@@H](C)O)cn2n[14cH]nc(Oc3ccc4[nH]c(C(=O)O)cc4c3F)c12
metabolite_not_detected: Drug metabolism (Liver cytosol [5])
metabolite_detected: Drug metabolism (Liver cytosol [4])

Cc1c(OC[C@@H](C)O)cn2ncnc(Oc3ccc4[nH]c(CO)cc4c3F)c12
metabolite_detected: Drug metabolism (Cytochrome P450 2D6) | Drug metabolism (Cytochrome P450 3A5) | Drug metabolism (Cytochrome P450 2C19) | Drug metabolism (Cytochrome P450 2C8) | Drug metabolism (Cytochrome P450 2A6) | Drug metabolism (Cytochrome P450 2B6) | Drug metabolism (Cytochrome P450 2C9) | Drug metabolism (Liver microsome [6]) | Drug metabolism (Liver microsome [7]) | Drug metabolism (Liver microsome [8]) | Drug metabolism (Cytochrome P450 1A1) | Drug metabolism (Cytochrome P450 1A2) | Drug metabolism (Cytochrome P450 1B1) | Drug metabolism (Cytochrome P450 3A4) | Drug metabolism (Liver microsome [9]) | Drug metabolism (Liver microsome [10]) | Drug metabolism (Liver microsome [11]) | Drug metabolism (Liver microsome [12])

Cc1c(OC[C@@H](C)O)cn2ncnc(Oc3ccc4[nH]c(C(=O)O)cc4c3F)c12
metabolite_detected: Drug metabolism (Liver microsome [12]) | Drug metabolism (Liver cytosol [13]) | Drug metabolism (Liver cytosol [14])

Cc1cc2c(F)c(Oc3n[14cH]nn4cc(OC[C@@H](C)OS(=O)(=O)O)c(C)c34)ccc2[nH]1
metabolite_detected: Drug metabolism (Liver microsome [15]) | Drug metabolism (Liver microsome [16])
metabolite_not_detected: Drug metabolism (Liver microsome [17])

CC(=O)COc1cn2ncnc(Oc3ccc4[nH]c(C)cc4c3F)c2c1C
metabolite_detected: Drug metabolism (Liver microsome [12])

B1: Cytochrome P450 1A2 (Homo sapiens) (protein)
chain: T4 sequence (P05177 whole entry)
1.39e-06 µmol/min: Vmax [18]
45 µM: Km [18]
